Measured values reported in PMC13185115, “Photovermellogens: Minimalistic Pyridinium-Based Acylhydrazones with Photoswitchable Basicity for Operation in Aqueous Media” (The Journal of Organic Chemistry, 2026).

Tests used:
[1] = pKa determination for the photostationary state (Z-enriched) by UV-Vis spectroscopy; type: physicochemical; details: apparent acidity constant of the cationic Z form as present in the photostationary state (88–97% Z) after 254 nm irradiation; water
Text: (§1) Having confirmed the photochemical behavior of the protonated forms, we next explored their light-responsiveness in the deprotonated state. […] To probe whether Z-P a–c could nonetheless be generated indirectly, we explored a consecutive photoisomerization–deprotonation sequence. Thus, E-P a–cH^+ was first irradiated at 254 nm and pH 6 to enrich the Z population, followed by immediate adjustment of the solution to pH 13. Under these conditions, transient spectroscopic features were observed, consistent with the kinetic trapping of the metastable Z-P a–c species. […] These spectroscopic observations enabled the estimation of virtual pK a values for the Z-enriched solutions (Table and Figures S163–168, SI1), which confirmed the reduced acidity of the NH group in the Z-isomers, presumably arising from intramolecular hydrogen-bond formation.
6. Determination of pK a values for the PSS by UV-Vis spectroscopy.
The concentration of P a-cH·Cl was kept constant at appropriate values in the 10-20 µM range, and that of the phosphate buffer at 20 mM. The absorption measurements of the corresponding air-equilibrated phosphate buffered aqueous solutions were carried out at room temperature (298 K), in quartz cuvettes with 1 cm optical pathlength. For the kinetic trapping of the deprotonated Z-isomers of P a-cH·Cl, a solution of the corresponding salt in phosphate buffered solution at a conveniently acidic pH/pD was irradiated at 254 nm until reaching the PSS. Then, the pH of the solution was in each case adjusted to the required final value, by addition of 40 mM stock solutions of phosphate buffer of the required composition. The reported measurements were done as fast as possible to minimize thermal back-isomerization.

[2] = UV-vis absorption spectra in buffered water (λmax, molar absorption coefficient); type: physicochemical; details: for ε of the acidic form from absorbance vs concentration: P bH·Cl pH 5, 378 nm, P cH·Cl pH 6, 350 nm, P dH·Cl pH 6, 411 nm; for ε of the basic form from absorbance vs concentration: P bH·Cl pH 12, 456 nm, P cH·Cl pH 12, 433 nm, P dH·Cl pH 13, 500 nm; for λmax (Z-P) / ε (Z-P): Z conjugate base; for λmax (Z-P) / λmax (E-P) / λmax (E-PH^+) / λmax (Z-PH^+): maximum of the longest-wavelength absorption band; for λmax (Z-P) / ε (Z-P) / λmax (E-P) / ε (E-P) / λmax (E-PH^+) / λmax (Z-PH^+) / ε (E-PH^+) / ε (Z-PH^+): water; for ε (Z-P) / ε (E-P): molar absorption coefficient; for ε (Z-P) / ε (E-P) / ε (E-PH^+) / ε (Z-PH^+): error ± 5%; for λmax (E-P) / ε (E-P): conjugate base; for ε (E-PH^+) / ε (Z-PH^+): molar absorption coefficient at λmax
Text: With the photovermellogens synthesized and fully characterized, their acid–base properties were next investigated by UV–vis spectroscopy to determine whether the pH-responsiveness characteristic of parent vermellogens was retained. Indeed, P a–dH·Cl reproduced the archetypical absorption changes of vermellogens (Figures c and S130–S137, SI1). , In essence, the characteristic intense π–π* absorption bands of the cations undergo a considerable bathochromic shift upon deprotonation (Table ), as also confirmed by our quantum chemical calculations (Figure S2, S2), causing a notable color change from yellow to red. This pronounced shift allowed the estimation of pK a values for E-P a–dH^+ via UV–vis absorption titrations, which, as for other vermellogens, fall within the biologically relevant pH range (Figure c, Table and Figures S130–S137, SI1). Changes in the protonation state were also easily monitored by ^1H NMR spectroscopy, with the gain in electronic density translating in a substantial shielding of resonances of the corresponding conjugate bases E/Z-P a–d (Figure a). As already observed for E-P a–dH^+, the deprotonated species were also thermally stable in the absence of light.
as §1
Figure S132. UV-Vis spectra of P bH·Cl at pH 5 (black) and pH 12 (red) at 20 µM. b) Linear relationship at pH 5 between absorbance at 378 nm and concentration of P bH·Cl (ε = 42265 ± 838 L·mol -1·cm-1). c) Linear relationship at pH 12 between absorbance at 456 nm and concentration of P bH·Cl (ε = 42143 ± 1044 L·mol -1·cm-1).
Figure S133. UV-Vis spectra for the titration of P bH·Cl (20 μM in phosphate buffer solutions in the 4.1-10.6 pH range). b) Absorption of P bH+ at λ = 378 nm plotted against pH. c) Linear fitting […]
Figure S134. UV-Vis spectra of P cH·Cl at pH 6 (black) and pH 12 (red) at 14 µM. b) Linear relationship at pH 6 between absorbance at 350 nm and concentration of P cH·Cl (ε = 49266 ± 1780 L·mol-1·cm-1). c) Linear relationship at pH 12 between absorbance at 433 nm and concentration of P cH·Cl (ε = 46382 ± 1667 L·mol -1·cm-1).
Figure S135.UV-Vis spectra for the titration of P cH·Cl, (14 μM in phosphate buffer solutions in the 5.1-11.7 pH range). b) Absorption of P cH+ at λ = 351 nm plotted against pH. c) Linear fitting […]
Figure S136. UV-Vis spectra of P dH·Cl at pH 6 (red) and pH 13 (black) at 11 µM. b) Linear relationship at pH 6 between absorbance at 411 nm and concentration of P dH·Cl (ε = 65691 ± 2966 L·mol-1·cm-1). c) Linear relationship at pH 13 between absorbance at 500 nm and concentration of P dH·Cl (ε = 69154 ± 3100 L·mol -1·cm-1).
Figure S137. UV-Vis spectra for the titration of P dH·Cl (11 μM in phosphate buffer solutions in the 5.1-11.7 pH range). b) Absorption of P dH+ at λ = 410 nm plotted against pH. c) Linear fitting

SMILES	pK a (PSD) [1]	ε of the acidic form from absorbance vs concentration [2]	ε of the basic form from absorbance vs concentration [2]	λmax (Z-P) [2]	ε (Z-P) [2]	λmax (E-P) [2]	ε (E-P) [2]	λmax (E-PH^+) [2]	λmax (Z-PH^+) [2]	ε (E-PH^+) [2]	ε (Z-PH^+) [2]
O=C(C=NNc1cc[n+](-c2ccccc2)cc1)c1ccccc1 [P cH^+]	9.9 ± 0.1	49266 ± 1780 L/mol/cm	46382 ± 1667 L/mol/cm	420 nm	15,000 M^–1·cm^–1	432 nm	46,000 M^–1·cm^–1	349 nm	359 nm	49,000 M^–1·cm^–1	43,000 M^–1·cm^–1
C[n+]1ccc(-c2ccc(NN=CC(=O)c3ccccc3)cc2)cc1 [P dH^+]	–	65691 ± 2966 L/mol/cm	69154 ± 3100 L/mol/cm	–	–	500 nm	69,000 M^–1·cm^–1	411 nm	–	66,000 M^–1·cm^–1	–
C[n+]1ccc(NN=CC(=O)c2ccccc2)cc1 [P aH^+]	10.4 ± 0.2	–	–	420 nm	18,000 M^–1·cm^–1	429 nm	39,000 M^–1·cm^–1	342 nm	352 nm	41,000 M^–1·cm^–1	43,000 M^–1·cm^–1
C[n+]1ccc(NN=CC(=O)c2ccccc2)c2ccccc21 [P bH^+]	8.8 ± 0.2	42265 ± 838 L/mol/cm	42143 ± 1044 L/mol/cm	445 nm	13,000 M^–1·cm^–1	456 nm	42,000 M^–1·cm^–1	378 nm	384 nm	42,000 M^–1·cm^–1	36000 M^–1·cm^–1
